Earlier results, collected in patent US20110003837A1, “MODIFIED RELEASE FORMULATIONS OF HMG COA REDUCTASE INHIBITORS” (LUPIN LIMITED, priority 2008, published 2011).
Where two headings read alike, the source gives them in different places.

Assays:
[1] = in vivo
[2] = 40 mg daily, clinical trials
[3] = in words
[4] = biological target: T1, HMG-CoA reductase (Homo sapiens, UniProt P04035)
T1 sequence (P04035 1-888): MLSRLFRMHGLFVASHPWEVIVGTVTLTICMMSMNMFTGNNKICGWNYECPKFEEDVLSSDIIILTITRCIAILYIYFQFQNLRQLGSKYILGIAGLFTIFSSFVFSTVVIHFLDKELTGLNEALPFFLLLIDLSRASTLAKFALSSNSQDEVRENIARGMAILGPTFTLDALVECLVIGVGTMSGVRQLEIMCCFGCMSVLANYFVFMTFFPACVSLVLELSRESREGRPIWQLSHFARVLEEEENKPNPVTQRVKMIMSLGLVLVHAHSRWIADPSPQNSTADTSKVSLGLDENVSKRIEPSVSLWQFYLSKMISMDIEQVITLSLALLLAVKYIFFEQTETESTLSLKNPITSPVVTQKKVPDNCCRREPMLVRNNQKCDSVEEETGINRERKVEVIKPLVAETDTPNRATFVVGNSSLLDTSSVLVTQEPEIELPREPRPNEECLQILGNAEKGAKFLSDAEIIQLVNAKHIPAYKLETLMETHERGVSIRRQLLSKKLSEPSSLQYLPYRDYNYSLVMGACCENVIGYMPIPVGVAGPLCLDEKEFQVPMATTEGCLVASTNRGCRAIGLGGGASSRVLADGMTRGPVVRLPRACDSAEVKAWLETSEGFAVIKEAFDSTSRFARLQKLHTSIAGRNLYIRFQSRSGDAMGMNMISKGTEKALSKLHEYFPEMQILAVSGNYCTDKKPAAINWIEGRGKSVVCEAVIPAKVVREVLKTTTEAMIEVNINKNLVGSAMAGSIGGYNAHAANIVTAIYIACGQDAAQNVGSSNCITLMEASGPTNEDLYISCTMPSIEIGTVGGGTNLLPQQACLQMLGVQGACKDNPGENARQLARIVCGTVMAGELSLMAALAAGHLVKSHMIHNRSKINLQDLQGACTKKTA

[5] = U.S. Pharmacopeia (2002)

Patients with drug levels greater than 50 ng/ml (40 mg): 2% | Patients with drug levels greater than 50 ng/ml (80 mg): 33% | Absorbed dose extracted by the liver [1]: up to 90% | Clearance through biliary excretion [1]: 90% | Elimination half-life (t½) [1]: 20 h | Excreted in the urine [1]: 10% | Stability in acidic environments like that found in the stomach [3]: stable in acidic environments | Share of the inhibitory activity of rosuvastatin due to the parent compound [4]: 90% | Solubility class [5]: sparingly soluble
SMILES: CC(C)c1nc(N(C)S(C)(=O)=O)nc(-c2ccc(F)cc2)c1/C=C/[C@@H](O)C[C@@H](O)CC(=O)O (single isomer, unassigned) [rosuvastatin]
Plasma level at which muscle and or renal toxicity developed (plasma): more than 50 ng/ml | LDL-C reduction [2]: up to 63%
